Data: patent publication US7959691B2, “Composition” (Innospec Deutschland GmbH, priority 2009, dated 2011)
Marks after values point to notes of the source that are not given here. Blank lines part the entries; values can stand above or below the compound they belong to.

Tests used:
[1] = Solubility in Isopar L at −30° C. during 120 hours, X-ray fluorescence (Example 4); assay type: physicochemical; settings: nominal 5 wt % iron; for Solubility (% m/m Fe): 0.02 μm filtration
Protocol: The solubility of the isolated samples was determined in Isopar L solvent. For the isolated samples of compounds 7 and 8 the C/H/N analysis was used to indicate the iron content. For compounds 9 and 10 the theoretical iron content was assumed. Solutions were then prepared, at ambient temperatures or with slight warming as required, to a nominal iron content 5 wt % The samples were then sealed and immersed in a bath of ethylene glycol/water cooled and thermostatted to −30° C. during 120 hours.
The samples were then individually removed from the bath, taken up into a 10 cm^3 syringe then discharged to a second vial with filtration via a Whatman Anotop 25 0.02 μm in-line filter with Luer hub. Iron contents were then determined by X-ray fluorescence spectroscopy in an Oxford Instruments ED2000 Ag analyser. The analyser was calibrated against standards of ferrocene in toluene at iron concentrations of 0.5 through 3.0 wt % by 0.5 wt % intervals and against ferrocene in Isopar L 0.5 and 1.0 wt % (approximate ambient temperature solubility limit). Where required, dilution of sample materials was employed to bring the concentration within the range of the calibration.

[2] = Iron content of Isopar L solutions stored at −30° C. (Example 2); assay type: physicochemical; settings: for Iron content of Isopar L solutions at −30° C.: 5 wt % iron solutions in Isopar L stored at −30° C. at least one week, filtered, X-ray spectroscopy; for Iron content of Isopar L solutions at −30° C., purified sample: as E8, sample first purified by dissolving in minimum heptane, recrystallising out ferrocene, filtration, solvent removal
Protocol: The solubilities of the products of the above reactions were determined on a weight percent iron basis. […] Solutions at 5 wt % iron in Isopar L were prepared on this basis, sealed into vials and stored at −30° C. during at least one week.

[3] = Text: Solubility testing was undertaken using the estimate of Fe content from C/H/N analysis. […] This procedure assumes the products below to contain substantially only C, H and Fe. Masses of product(s) sufficient to provide the required concentration of iron as condensation products were weighed into screw-cap vials and made up to 10.00 g with toluene. The samples were capped, shaken or swirled until homogenous then sealed using Parafilm™. The vials were then kept in an ethylene glycol/water filled bath held at −30° C. and periodically inspected for the appearance of solids or separation of liquid phases. After at least one week solids were separated by rapid filtration and soluble products isolated by removal of solvent under vacuum.
Following analysis of the solids, maximum and minimum solubilities were estimated from the mass balance.

[4] = Viscosity of 2.5 wt % iron solutions in toluene (Bohlin CVO rheometer); assay type: physicochemical; settings: toluene solution at 2.5 wt % Fe
Protocol: Viscosities of 2.5 wt % iron solutions were determined using a Bohlin Instruments CVO rheometer using a 4° 40 mm cone and plate at shear rates of either 2 Pa or 0.5 Pa.

Compound: 1,1-bis(butylferrocenyl)pentane [Compound 10]
- Appearance/ease of filtration [1]: Clear, but hard to filter
- Solubility (% m/m Fe) [1]: 4.8 % m/m Fe

Compound: 1,1-bis(ethylferrocenyl)pentane [Compound 9]
- Appearance/ease of filtration [1]: Clear, filters well
- Solubility (% m/m Fe) [1]: 5.0 % m/m Fe

Compound: 1,1-bis-(ferrocenyl)-decane
- Iron content of Isopar L solutions at −30° C. [2]: 4.41 wt %

Compound: 1,1-bis-(ferrocenyl)-heptane
- Iron content of Isopar L solutions at −30° C. [2]: 4.05 wt %

Compound: 1,1-bis-(ferrocenyl)-hexane
- Iron content of Isopar L solutions at −30° C. [2]: 3.99 wt %
- Iron content of Isopar L solutions at −30° C., purified sample [2]: 4.89* wt %

Compound: 1,1-bis-(ferrocenyl)-nonane
- Iron content of Isopar L solutions at −30° C. [2]: 4.96 wt %

Compound: 1,1-bis-(ferrocenyl)-octane
- Iron content of Isopar L solutions at −30° C. [2]: 4.60 wt %
- Iron content of Isopar L solutions at −30° C., purified sample [2]: 4.88* wt %

Compound: 1,1-diferrocenylpentane [Compound 4]
- Solubility in Toluene at −30° C., 2.5 wt % Fe [3]: Clear
- Solubility in Toluene at −30° C., 5.0 wt % Fe [3]: Clear
- Viscosity at −30° C. [4]: 5.4 mPas

Compound: 2,2-bis-(ferrocenyl)-heptane
- Iron content of Isopar L solutions at −30° C. [2]: 3.29 wt %

Compound: 2,2-bis-(ferrocenyl)-octane
- Iron content of Isopar L solutions at −30° C. [2]: 2.72 wt %

Compound: 2,2-bis-(ferrocenyl)-pentane
- Iron content of Isopar L solutions at −30° C. [2]: 2.62 wt %

Compound: 3,3-bis-(ferrocenyl)-butyl acetate
- Iron content of Isopar L solutions at −30° C. [2]: 2.30 wt %

Compound: 3,3-bis-(ferrocenyl)-hexane
- Iron content of Isopar L solutions at −30° C. [2]: 1.38 wt %

Compound: 3,3-bis-(ferrocenyl)-pentane
- Iron content of Isopar L solutions at −30° C. [2]: 1.71 wt %

- Solubility in Toluene at −30° C., 2.5 wt % Fe [3]: Clear
- Solubility in Toluene at −30° C., 5.0 wt % Fe [3]: Clear
- solubility limit in toluene [3]: less than 3.2 wt %
- Viscosity at −30° C. [4]: 5.1 to 6.4 mPas
Compound: CCCCC(C=O)CC (centres unmarked) [Compound 1, 2-Ethylhexanal]

Compound: CC(=O)CCC(C)=O [Compound 2, Acetonyl acetone]
- Solubility in Toluene at −30° C., 2.5 wt % Fe [3]: Powder
- Solubility in Toluene at −30° C., 5.0 wt % Fe [3]: Powder

- Solubility in Toluene at −30° C., 2.5 wt % Fe [3]: Clear
- Solubility in Toluene at −30° C., 5.0 wt % Fe [3]: Solids
- Viscosity at −30° C. [4]: 5.1 mPas
Compound: CCCC(=O)CCC [Compound 3, Heptan-4-one]
